Test results reported in patent US20200190087A1 (priority 2016, published 2020).
Read-outs that look alike come from different tables or passages of the source.

Assays:
[1] = target: Human α2δ-1 subunit of Cav2.2 calcium channel (Homo sapiens, UniProt P54289); experiment: Human α2δ-1 subunit of Cav2.2 calcium channel assay ([3H]-Gabapentin binding); details: human α2δ-1 enriched membranes, 15 nM [3H]-Gabapentin, binding expressed as Ki; read-out: α2δ1 binding activity
Procedure: Human α2δ-1 Subunit of Cav2.2 Calcium Channel Assay
Human α2δ-1 enriched membranes (2.5 μg) were incubated with 15 nM of radiolabeled [3H]-Gabapentin in assay buffer containing Hepes-KOH 10 mM, pH 7.4. NSB (non specific binding) was measured by adding 10 μM pregabalin. The binding of the test compound was measured at five different concentrations. After 60 min incubation at 27° C., binding reaction was terminated by filtering through Multiscreen GF/C (Millipore) presoaked in 0.5% polyethyleneimine in Vacuum Manifold Station, followed by 3 washes with ice-cold filtration buffer containing 50 mM Tris-HCl, pH 7.4. Filter plates were dried at 60° C. for 1 hour and 30 μl of scintillation cocktail were added to each well before radioactivity reading. Readings were performed in a Trilux 1450 Microbeta radioactive counter (Perkin Elmer).

[2] = target: T1, human μ-opioid receptor (Homo sapiens, UniProt P35372); experiment: Human μ-opioid receptor radioligand assay ([3H]-DAMGO); assay type: binding
T1 construct: expressed in transfected cells; host or cells: CHO-K1
Procedure: Human μ-Opioid Receptor Radioligand Assay
To investigate binding properties of test compounds to human μ-opioid receptor, transfected CHO-K1 cell membranes and [^3H]-DAMGO (Perkin Elmer, ES-542-C), as the radioligand, were used. The assay was carried out with 20 μg of membrane suspension, 1 nM of [^3H]-DAMGO in either absence or presence of either buffer or 10 μM Naloxone for total and non-specific binding, respectively. Binding buffer contained Tris-HCl 50 mM, MgCl2 5 mM at pH 7.4. Plates were incubated at 27° C. for 60 minutes. After the incubation period, the reaction mix was then transferred to MultiScreen HTS, FC plates (Millipore), filtered and plates were washed 3 times with ice-cold 10 mM Tris-HCL (pH 7.4). Filters were dried and counted at approximately 40% efficiency in a MicroBeta scintillation counter (Perkin-Elmer) using EcoScint liquid scintillation cocktail. Preferably, transfected CHO-K1 cell membranes (20 μg) were incubated with 1 nM of [^3H]-DAMGO in assay buffer containing Tris-HCl 50 mM, MgCl2 5 mM at pH 7.4. NBS (non-specific binding) was measured by adding 10 μM Naloxone. The binding of the test compound was measured at five different concentrations. Plates were incubated at 27° C. for 60 minutes. After the incubation period, the reaction mix was then transferred to MultiScreen HTS, FC plates (Millipore), filtered and plates were washed 3 times with ice-cold 10 mM Tris-HCL (pH 7.4). Filters were dried and counted at approximately 40% efficiency in a MicroBeta scintillation counter (Perkin-Elmer) using EcoScint liquid scintillation cocktail.

[3] = transfected CHO-K1 cell membranes, 1 nM [3H]-DAMGO, binding expressed as Ki, read-out: Mu binding activity

T1 sequence (P35372 whole entry): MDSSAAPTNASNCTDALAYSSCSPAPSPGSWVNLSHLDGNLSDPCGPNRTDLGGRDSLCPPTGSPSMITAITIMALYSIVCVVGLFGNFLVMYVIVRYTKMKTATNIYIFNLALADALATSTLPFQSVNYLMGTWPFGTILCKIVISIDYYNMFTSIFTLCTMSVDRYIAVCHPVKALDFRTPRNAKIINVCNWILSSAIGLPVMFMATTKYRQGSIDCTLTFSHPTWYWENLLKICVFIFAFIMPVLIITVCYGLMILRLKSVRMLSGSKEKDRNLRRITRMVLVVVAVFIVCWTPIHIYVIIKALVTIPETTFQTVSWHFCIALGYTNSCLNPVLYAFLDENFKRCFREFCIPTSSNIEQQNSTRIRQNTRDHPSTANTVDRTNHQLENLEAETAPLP
Chain of Human α2δ-1 subunit of Cav2.2 calcium channel (P54289 25-1103): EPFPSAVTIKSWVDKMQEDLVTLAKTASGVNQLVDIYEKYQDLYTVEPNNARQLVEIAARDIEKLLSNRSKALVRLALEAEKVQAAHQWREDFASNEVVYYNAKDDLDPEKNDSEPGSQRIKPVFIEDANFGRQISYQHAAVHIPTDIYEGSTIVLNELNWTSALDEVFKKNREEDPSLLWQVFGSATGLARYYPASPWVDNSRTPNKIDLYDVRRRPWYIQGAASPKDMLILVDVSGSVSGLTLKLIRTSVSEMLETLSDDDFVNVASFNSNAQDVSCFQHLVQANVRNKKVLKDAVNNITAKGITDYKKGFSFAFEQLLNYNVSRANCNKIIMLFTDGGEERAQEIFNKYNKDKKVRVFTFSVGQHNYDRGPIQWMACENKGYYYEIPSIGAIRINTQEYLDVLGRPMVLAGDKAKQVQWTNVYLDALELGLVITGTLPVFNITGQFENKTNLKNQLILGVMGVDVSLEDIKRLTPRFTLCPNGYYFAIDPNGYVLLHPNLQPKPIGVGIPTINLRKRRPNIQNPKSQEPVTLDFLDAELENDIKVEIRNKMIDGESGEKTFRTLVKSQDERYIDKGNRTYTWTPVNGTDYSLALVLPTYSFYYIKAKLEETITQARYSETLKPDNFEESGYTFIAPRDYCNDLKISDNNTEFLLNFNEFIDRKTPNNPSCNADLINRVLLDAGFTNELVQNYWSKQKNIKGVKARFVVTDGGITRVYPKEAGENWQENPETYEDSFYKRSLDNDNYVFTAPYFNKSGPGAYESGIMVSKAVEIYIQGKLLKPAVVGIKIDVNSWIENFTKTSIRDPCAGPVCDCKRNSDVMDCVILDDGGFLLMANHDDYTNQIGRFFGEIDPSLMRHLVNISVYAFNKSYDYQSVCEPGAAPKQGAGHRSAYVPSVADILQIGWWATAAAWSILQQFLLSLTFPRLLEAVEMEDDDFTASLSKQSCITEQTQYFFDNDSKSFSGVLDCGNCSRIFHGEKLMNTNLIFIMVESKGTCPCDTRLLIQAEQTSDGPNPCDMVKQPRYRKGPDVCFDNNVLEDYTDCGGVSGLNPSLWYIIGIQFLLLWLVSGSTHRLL

Structure (SMILES) | Ki [1] | Ki [2, 3] | Ki [2]
CCOc1ccc(-n2nc3c(C4CCN(CCC5CCOCC5)CC4)nnc(C)c3c2C)c(F)c1 [Ex 34, 2-(4-Ethoxy-2-fluorophenyl)-3,4-dimethyl-7-(1-(2-(tetrahydro-2H-pyran-4-yl)ethyl)piperidin-4-yl)-2H-pyrazolo[3,4-d]pyridazine] | 3000 to 5000 nM | > 500 nM | 
CCOc1ccc(-n2nc3c(C4CCN(CCc5cccc(F)c5)CC4)nnc(C)c3c2C)c(F)c1 [Ex 44, 2-(4-Ethoxy-2-fluorophenyl)-7-(1-(3-fluorophenethyl)piperidin-4-yl)-3,4-dimethyl-2H-pyrazolo[3,4-d]pyridazine] | 500 to 3000 nM |  | < 500 nM
CCOc1ccc(-n2nc3c(C4CCN(CC5CCOCC5)CC4)nnc(C)c3c2C)c(F)c1 [Ex 33, 2-(4-Ethoxy-2-fluorophenyl)-3,4-dimethyl-7-(1-((tetrahydro-2H-pyran-4-yl)methyl)piperidin-4-yl)-2H-pyrazolo[3,4-d]pyridazine] | 500 to 3000 nM | > 500 nM | 
CCOc1ccc(-n2nc3c(C4CCCN(C(=O)OC(C)(C)C)C4)nnc(C)c3c2C)c(F)c1 (stereo not shown) [Ex 15, tert-Butyl-3-(2-(4-ethoxy-2-fluorophenyl)-3,4-dimethyl-2H-pyrazolo[3,4-d]pyridazin-7-yl)piperidine-1-carboxylate] | ≥ 5000 nM | > 500 nM | 
CCOc1ccc(-n2nc3c(C4=CCN(C(=O)OC(C)(C)C)CC4)nnc(C)c3c2C)c(F)c1 [Ex 1, tert-Butyl 4-(2-(4-ethoxy-2-fluorophenyl)-3,4-dimethyl-2H-pyrazolo[3,4-d]pyridazin-7-yl)-3,6-dihydropyridine-1(2H)-carboxylate] | ≥ 5000 nM | > 500 nM | 
CCOc1ccc(-n2nc3c(C4CCN(CCc5ccccn5)CC4)nnc(C)c3c2C)c(F)c1 [Ex 42, 2-(4-Ethoxy-2-fluorophenyl)-3,4-dimethyl-7-(1-(2-(pyridin-2-yl)ethyl)piperidin-4-yl)-2H-pyrazolo[3,4-d]pyridazine] | 500 to 3000 nM | > 500 nM | 
CCOc1ccc(-n2nc3c(C4CCN(Cc5ccccn5)CC4)nnc(C)c3c2C)c(F)c1 [Ex 28, 2-(4-Ethoxy-2-fluorophenyl)-3,4-dimethyl-7-(1-(pyridin-2-ylmethyl)piperidin-4-yl)-2H-pyrazolo[3,4-d]pyridazine] | 500 to 3000 nM |  | < 500 nM
CCOc1ccc(-n2nc3c(C4CCN(CCc5ccncc5)CC4)nnc(C)c3c2C)c(F)c1 [Ex 57, 2-(4-Ethoxy-2-fluorophenyl)-3,4-dimethyl-7-(1-(2-(pyridin-4-yl)ethyl)piperidin-4-yl)-2H-pyrazolo[3,4-d]pyridazine] | 500 to 3000 nM | > 500 nM | 
CCOc1ccc(-n2nc3c(C4=CN(C(=O)OC(C)(C)C)CCC4)nnc(C)c3c2C)c(F)c1 [Ex 3, tert-Butyl 5-(2-(4-ethoxy-2-fluorophenyl)-3,4-dimethyl-2H-pyrazolo[3,4-d]pyridazin-7-yl)-3,4-dihydropyridine-1(2H)-carboxylate] | ≥ 5000 nM | > 500 nM | 
CCOc1ccc(-n2nc3c(C4CCN(Cc5ncccc5OC)CC4)nnc(C)c3c2C)c(F)c1 [Ex 50, 2-(4-Ethoxy-2-fluorophenyl)-7-(1-((3-methoxypyridin-2-yl)methyl)piperidin-4-yl)-3,4-dimethyl-2H-pyrazolo[3,4-d]pyridazine] | 500 to 3000 nM | > 500 nM | 
CCOc1ccc(-n2nc3c(CCCN(C)C(=O)OC(C)(C)C)nnc(C)c3c2C)c(F)c1 [Ex 17, tert-Butyl-(3-(2-(4-ethoxy-2-fluorophenyl)-3,4-dimethyl-2H-pyrazolo[3,4-d]pyridazin-7-yl)propyl)(methyl)carbamate] | ≥ 5000 nM | > 500 nM | 
CCOc1ccc(-n2nc3c(C4CCN(Cc5cn(Cc6ccccn6)nn5)CC4)nnc(C)c3c2C)c(F)c1 [Ex 35, 2-(4-Ethoxy-2-fluorophenyl)-3,4-dimethyl-7-(1-((1-(pyridin-2-ylmethyl)-1H-1,2,3-triazol-4-yl)methyl)piperidin-4-yl)-2H-pyrazolo[3,4-d]pyridazine] | 500 to 3000 nM | > 500 nM | 
CCOc1ccc(-n2nc3c(CCCNC(=O)OC(C)(C)C)nnc(C)c3c2C)c(F)c1 [Ex 16, tert-Butyl-(3-(2-(4-ethoxy-2-fluorophenyl)-3,4-dimethyl-2H-pyrazolo[3,4-d]pyridazin-7-yl)propyl)carbamate] | ≥ 5000 nM | > 500 nM | 
CCOc1ccc(-n2nc3c(C4CCN(CCc5ccccc5)CC4)nnc(C)c3c2C)c(F)c1 [Ex 25, 2-(4-Ethoxy-2-fluorophenyl)-3,4-dimethyl-7-(1-phenethylpiperidin-4-yl)-2H-pyrazolo[3,4-d]pyridazine] | 500 to 3000 nM |  | < 500 nM
CCOc1ccc(-n2nc3c(C4CCN(Cc5ccccc5)CC4)nnc(C)c3c2C)c(F)c1 [Ex 26, 7-(1-Benzylpiperidin-4-yl)-2-(4-ethoxy-2-fluorophenyl)-3,4-dimethyl-2H-pyrazolo[3,4-d]pyridazine] | < 500 nM |  | < 500 nM
CCOc1ccc(-n2nc3c(C4CCN(CCc5ccccc5F)CC4)nnc(C)c3c2C)c(F)c1 [Ex 43, 2-(4-Ethoxy-2-fluorophenyl)-7-(1-(2-fluorophenethyl)piperidin-4-yl)-3,4-dimethyl-2H-pyrazolo[3,4-d]pyridazine] | 500 to 3000 nM |  | < 500 nM
CCOc1ccc(-n2nc3c(C4CCN(Cc5ncccc5O)CC4)nnc(C)c3c2C)c(F)c1 [Ex 31, 2-((4-(2-(4-Ethoxy-2-fluorophenyl)-3,4-dimethyl-2H-pyrazolo[3,4-d]pyridazin-7-yl)piperidin-1-yl)methyl)pyridin-3-ol] | 500 to 3000 nM | > 500 nM | 

More lines, main results first:

Ki [1] | Ki [2, 3] | Structure (SMILES) | Ki [2]
> 5000 nM | > 500 nM | CCOc1ccc(-n2nc3c(-c4ccc5ncn(CCNC(=O)OC(C)(C)C)c5c4)nnc(C)c3c2C)c(F)c1 [Ex 11, tert-butyl (2-(6-(2-(4-ethoxy-2-fluorophenyl)-3,4-dimethyl-2H-pyrazolo[3,4-d]pyridazin-7-yl)-1H-benzo[d]imidazol-1-yl)ethyl)carbamate] | 
≥ 5000 nM | > 500 nM | CCOc1ccc(-n2nc3c(C4CCN(C(=O)OC(C)(C)C)CC4)nnc(C)c3c2C)c(F)c1 [Ex 13, tert-Butyl 4-(2-(4-ethoxy-2-fluorophenyl)-3,4-dimethyl-2H-pyrazolo[3,4-d]pyridazin-7-yl)piperidine-1-carboxylate] | 
500 to 3000 nM | > 500 nM | CCOc1ccc(-n2nc3c(C(C#N)C(=O)OC(C)(C)C)nnc(C)c3c2C)c(F)c1 (stereo not shown) [Ex 61, tert-Butyl 2-cyano-2-(2-(4-ethoxy-2-fluorophenyl)-3,4-dimethyl-2H-pyrazolo[3,4-d]pyridazin-7-yl)acetate] | 
≥ 5000 nM | > 500 nM | CCOc1ccc(-n2nc3c(C#N)nnc(C)c3c2C)c(F)c1 [Ex 59, 2-(4-Ethoxy-2-fluorophenyl)-3,4-dimethyl-2H-pyrazolo[3,4-d]pyridazine-7-carbonitrile] | 
≥ 5000 nM | > 500 nM | CCOc1ccc(-n2nc3c(/C=C/CNC(=O)OC(C)(C)C)nnc(C)c3c2C)c(F)c1 [Ex 4, tert-Butyl (E)-(3-(2-(4-ethoxy-2-fluorophenyl)-3,4-dimethyl-2H-pyrazolo[3,4-d]pyridazin-7-yl)allyl)carbamate] | 
≥ 5000 nM | > 500 nM | CCOc1ccc(-n2nc3c(C4CNC4)nnc(C)c3c2C)c(F)c1 [Ex 22, 7-(Azetidin-3-yl)-2-(4-ethoxy-2-fluorophenyl)-3,4-dimethyl-2H-pyrazolo[3,4-d]pyridazine] | 
500 to 3000 nM | > 500 nM | CCOc1ccc(-n2nc3c(C4CCN(Cc5ccc(C(F)(F)F)cn5)CC4)nnc(C)c3c2C)c(F)c1 [Ex 56, 2-(4-Ethoxy-2-fluorophenyl)-3,4-dimethyl-7-(1-((5-(trifluoromethyl)pyridin-2-yl)methyl)piperidin-4-yl)-2H-pyrazolo[3,4-d]pyridazine] | 
≥ 5000 nM | > 500 nM | CCOc1ccc(-n2nc3c(CCNC(=O)OC(C)(C)C)nnc(C)c3c2C)c(F)c1 [Ex 63, tert-Butyl (2-(2-(4-ethoxy-2-fluorophenyl)-3,4-dimethyl-2H-pyrazolo[3,4-d]pyridazin-7-yl)ethyl)carbamate] | 
≥ 5000 nM | > 500 nM | CCOc1ccc(-n2nc3c(C4CCCNC4)nnc(C)c3c2C)c(F)c1 (stereo not shown) [Ex 19, 2-(4-Ethoxy-2-fluorophenyl)-3,4-dimethyl-7-(piperidin-3-yl)-2H-pyrazolo[3,4-d]pyridazine] | 
